Laboratory results published in patent EP0987275B1, “Molecules that home to a selected organ or tissue in vivo” (LA JOLLA CANCER RESEARCH FOUNDATION, priority 1995, dated 2008).

Columns and labels:
[1] = test system: Human 435 breast carcinoma cells; test: Competition of RGD phage tumor homing by coinjected free peptide; type: in vivo, nude mice; conditions: coinjection of 500 µg free peptide
Experimental: Human 435 breast carcinoma cells were inoculated into the mammary fat pad of nude mice. When the tumors attained a diameter of about 1 cm, phage expressing a specific RGD-containing peptide were administered to the tumor bearing mouse. Similar results to those discussed below also were obtained with nude mice bearing tumors formed by implantation of human melanoma C8161 cells or by implantation of mouse B16 melanoma cells.
1 x 10^9 phage expressing the RGD-containing peptide, […] (SEQ ID NO: 57; see, Koivunen et al., supra, 1995) or control (insertless) phage were injected intravenously (iv) into the mice and allowed to circulate for 4 min. The mice then were snap frozen while under anesthesia, and various organs, including tumor, brain and kidney, were removed and the phage present in the organs was quantitated (see Pasqualini and Ruoslahti, supra, 1996).

brain = test: Homing of 125I-peptide/RBC complex to brain, with peptide competition; type: in vivo, mouse; conditions: 10 mM unlabeled peptide
Experimental: The synthetic cyclic CLSSRLDAC (SEQ ID NO: 3) peptide (1 mg) was labeled with iodine-125 using the Bolton and Hunter reagent (Amersham; Arlington Heights IL). Labeled peptide was purified by reverse phase HPLC on Sep-Pak™ cartridges (Waters, Millipore Corp.; Milford PA) and the ^125I-peptide (200 µg) was coupled to 1 ml glutaraldehyde-stabilized sheep RBC (Sigma Chemical Co.; St. Louis MO) according to the manufacturer's instructions.
Fifty µl ^125I-peptide/RBC (200,000 cpm), alone or with 10 mM of unlabeled CLSSRLDAC (SEQ ID NO: 3), which is a brain homing peptide, or CVRLNSLAC (SEQ ID NO: 43), which has no brain homing activity, was injected into the tail vein. After 2 min, each mouse was perfused through the heart with 50 ml DMEM and the brain and kidney were removed and assayed for radioactivity.

Sequence	reduction of the amount of RGD phage in the tumor by coinjected free peptide [1]	effect of coadministered unlabeled peptide on brain homing of the CLSSRLDAC/RBC complex (brain)	effect of coadministered unlabeled peptide on complex localizing to the kidney (brain)
ACDCRGDCFCG	about tenfold	–	–
CVRLNSLAC	–	no effect	no effect
